The numbers were not newly measured in paper PMC6270305 (Molecules, 2013), which cites them from elsewhere.

Where two headings read alike, the source gives them in different places.

[1] abbreviates: human serum, peptide described in the preliminary communication.

As to `Cc1cc(C)c(C[C@@H]2NC(=O)[C@H](Cc3ccccc3)NC(=O)[C@H](CC(N)=O)NC(=O)[C@H](CCCCN)NC(=O)[C@@H](NC(=O)CNC(=O)[C@H](C)N)CSSC[C@@H](C(=O)O)NC(=O)[C@H](CO)NC(=O)[C@H]([C@@H](C)O)NC(=O)[C@H](Cc3ccccc3)NC(=O)[C@H]([C@@H](C)O)NC(=O)[C@H](CCCCN)NC(=O)[C@@H](Cc3c[nH]c4ccccc34)NC2=O)c(C)c1` [Peptide 5, [L-Msa7,D-Trp8]-SRIF], where the note is “human, serum”, the “t1/2 (human serum half-life)” value is reported as 25 h.
In the case of [L-Msa6,D-Trp8]-SRIF [Peptide 4], the “t1/2 (human serum half-life)” value under setting [1] is 26 h.
Consider [L-Msa7]-SRIF [Peptide 2], for which the “t1/2 (human serum half-life)” value under setting [1] was 5.2 h.
For [L-Msa11,D-Trp8]-SRIF [Peptide 6], under setting [1], the “t1/2 (human serum half-life)” value was 41 h.
